Test results taken from PubChem BioAssay AID1863 (Southern Research Specialized Biocontainment Screening …, 2009).

System: S. Typhimurium PhoP-regulated promoter GFP reporter, 4 h
Experiment: PhoP-dependent GFP reporter repression – Salmonella Typhimurium, primary screen (AID 1863)

SMILES | IC50 [µM]
O=c1c2c(-c3ccccc3)csc2nc2c3ccccc3c(NCCN3CCOCC3)nn12 | 53.3
O=c1c(O)cccc2cc(O)c(O)c(O)c12 | 27.5
CCCCCCNC(=O)c1cn(CC)c2cc(N3CCN(C)CC3)c(F)cc2c1=O | 23.2
COc1ccccc1CNCC(O)Cn1c2ccccc2c2ccccc21 (stereo not given) | 104
O=[N+]([O-])c1ccc(O)c2ncccc12 | 3.48
COc1c(N2CCNC(C)C2)c(F)cc2c(=O)c(C(=O)O)cn(C3CC3)c12 (stereo not given) | 0.58
Oc1cc(Cl)ccc1Oc1ccc(Cl)cc1Cl | 0.82
CCCCC(CC)CN=C(N)NC(N)=NCCCCCCN=C(N)NC(N)=NCC(CC)CCCC (stereo not given) | 7.11
O=C(O)CCN1C(=O)CC(N2C(=O)/C(=C/c3ccc(Cl)cc3)SC2=S)C1=O (stereo not given) | 40.4
O=C(c1cccs1)c1no[n+]([O-])c1C(=O)c1cccs1 | 33.7
Clc1ccc(CN2CCC(c3nc4ccc(Cl)cc4[nH]3)CC2)cc1 | 79.6
Cc1[nH]n(-c2ccccc2)c(=O)c1/C=N/Nc1nncc(-c2ccccc2)n1 | 29.5
CCCCCCCCCC[n+]1cccc2c3ccccc3ccc21 | 23.1
COc1cccc(/C=N\NC(=O)Cn2nnc3ccccc32)c1O | 84.3
COc1ccc(Nc2cc(C)c3c(O)cccc3n2)cc1 | 68.6
Cc1ccc(-c2csc(NC(=O)C[n+]3cc(-c4ccc(C)cc4)n4c3CCC4)n2)cc1 | 50
CN(C)[C@@H]1C(=O)C(C(N)=O)=C(O)[C@@]2(O)C(=O)C3=C(O)c4c(O)cccc4[C@@](C)(O)C3[C@H](O)C12 (stereo not given in full) | 1.74
c1cnc2c(c1)ccc1cccnc12 | 39.5
CN(C)c1ccc(O)c2c1CC1CC3C(N(C)C)C(=O)C(C(N)=O)=C(O)[C@@]3(O)C(=O)C1=C2O (stereo not given in full) | 9.35
O=C(N/N=C/c1cc([N+](=O)[O-])ccc1O)c1ccncc1 | 58.4
O=C1C=C(O)c2c(O)cc(O)c(O)c2C1=O | 73.2
COC12C(COC(N)=O)C3=C(C(=O)C(C)=C(N)C3=O)N1CC1C2N1C (stereo not given) | 16.3
O=C(N/N=C/c1ccc([N+](=O)[O-])o1)c1ccc(O)cc1 | 33.3
CCCCCCCCCCCCCCCC[n+]1cccc2ccccc21 | 24.9
CCn1cc(C(=O)NCCN(C)C)c(=O)c2cc(F)c(N3CCN(C)CC3)cc21 | 53
O=C(N/N=C/c1coc2ccc(Cl)cc2c1=O)c1cc(O)cc(O)c1 | 69.1
O=C(Nc1ccc(Cl)c(Cl)c1)Nc1ccccc1O | 135
Cc1ccc(Cn2c(=N)n(CC(=O)c3ccc([N+](=O)[O-])cc3)c3ccccc32)cc1 | 143

SMILES | IC50 [µM]
CCn1cc(C(=O)NCCCN(C)C)c(=O)c2cc(F)c(N3CCN(C)CC3)cc21 | 49.1
CC1COc2c(N3CCN(C)CC3)c(F)cc3c(=O)c(C(=O)O)cn1c23 (stereo not given) | 0.39
COC(=O)C1C(O)C(C)C(O)C(C)/C=C\C=C(/C)C(=O)Nc2c(C)c(OC(C)=O)c3c(c2O)C(=O)C(C)=C2OCOC(=C23)/C(C)=C/C(C)(O)C(O)C(C)C1O (stereo not given) | 14.8
CCCCCc1ccc(OCCOCCn2c[n+](C)c3ccccc32)c(CCCCC)c1 | 43.6
O=C(N/N=C/c1ccc([N+](=O)[O-])s1)C(O)c1ccccc1 (stereo not given) | 83.6
CCCCCCCCCC[N+](C)(C)CC/C=C1/c2ccccc2Sc2ccc(Cl)cc21 | 18.5
Cc1ccc(Nc2c3c(nc4ccccc24)CCC3)cc1 | 137
OCCNCc1c(OCc2ccc(Cl)cc2)ccc2ccccc12 | 127
O=C(CN1CCCC1)N/N=C/c1c(O)ccc2ccccc12 | 56.4
CCCCCCCCn1c2c(c(=N)c3ccccc31)CCC2 | 47.7
CCCc1nnc(NC(=O)c2cn(CC)c3cc(N4CCN(C)CC4)c(F)cc3c2=O)s1 | 67.3
O=C(C[n+]1cc(-c2ccc(Cl)cc2)n2c1CCC2)Nc1nc(-c2ccc(F)cc2)cs1 | 73.7
C[C@H]1c2cccc(O)c2C(O)=C2C(=O)C3(O)C(O)=C(C(N)=O)C(=O)[C@@H](N(C)C)[C@@H]3[C@@H](O)[C@@H]21 (stereo not given in full) | 6.6
Oc1cccc(/C=N/NC(=S)Nc2cccnc2)c1O | 45.6
COc1ccc(C(C[N+](=O)[O-])n2nc(C)cc2C)cc1 (stereo not given) | 48.7
CN(C)CCCN(C(=O)CCc1ccccc1)c1nc2ccc(Cl)cc2s1 | 48.2
CN1CCN(C(c2ccc(C(F)(F)F)cc2)c2cc(Cl)c3cccnc3c2O)CC1 (stereo not given) | 34
C=CC1=C(C(=O)O)N2C(=O)[C@@H](NC(=O)/C(=N/OCC(=O)O)c3csc(N)n3)[C@H]2SC1 | 22.4
CCNC(=S)NNC(=O)c1ccccn1 | 62.6
Oc1ccc(/C=N/Nc2ncc(Br)cn2)c(O)c1 | 111
Nc1nonc1C(=O)N/N=C/c1cc(Br)ccc1O | 17.1
COc1ccc(Nc2cc(C)nc(NCc3ccccc3)n2)cc1 | 97.1
CCOc1cc(/C=N/N=C(N)N)ccc1OCc1ccc(Cl)cc1 | 45.9
CCCCOc1ccc(Br)cc1CSC(=N)N | 89.9
CC(=O)NC(c1cccc([N+](=O)[O-])c1)c1ccc2cccnc2c1O (stereo not given) | 105
COc1ccc2[nH]c3c(C)c4ccncc4c(C)c3c2c1 | 31.9
CC(=O)NC(c1cccs1)c1cc([N+](=O)[O-])c2cccnc2c1O (stereo not given) | 38.9
